Laboratory results taken from patent EP2114387B1, “USE OF COMPOSITIONS CONTAINING AT LEAST ONE LIGNANE AND/OR NEOLIGNANE FOR MODULATING TESTOSTERONE LEVELS” (Europe Finances, priority 2007, dated 2008).
Like-named read-outs stand apart in the source and are kept apart here.

Key:
[1] = target: T1, 5-α reductase type I (Homo sapiens, UniProt P18405); test: Inhibition of 5-alpha-reductase type I in HEK I cells (conversion of [4-14C]-androstenedione to dihydroandrostenedione); format: cell-based
T1 construct: expressed in transfected cells; host or cells: HEK I cells (HEK line kept under Geneticin-418 selection)
T1 sequence (P18405 1-259): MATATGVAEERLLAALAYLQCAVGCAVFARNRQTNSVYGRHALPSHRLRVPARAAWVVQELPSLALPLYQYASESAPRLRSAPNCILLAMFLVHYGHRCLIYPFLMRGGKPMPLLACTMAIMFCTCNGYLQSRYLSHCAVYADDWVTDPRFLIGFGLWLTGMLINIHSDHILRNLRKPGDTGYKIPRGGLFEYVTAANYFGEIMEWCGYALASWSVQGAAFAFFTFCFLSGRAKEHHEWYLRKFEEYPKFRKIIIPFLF
Experimental: Les cellules de type HEK I et HEK II ont été utilisées dans du DMEM (pH 7.4) avec 10 % FCS, Penicillin/Streptomycin (100 U/mL and 100 µg/mL) et 0.5 mg/mL de Geneticin-418-sulfate. Les tests d'inhibition ont été réalisés à des concentrations cellulaires de 0.25 x 106 cellules par 1.9 cm^2 et incubées pendant 20 h, 5 % CO2 à 37 °C.

[2] = target: T2, 5-α reductase type II (Homo sapiens, UniProt P31213); test: Inhibition of 5-alpha-reductase type II in HEK II cells (conversion of [4-14C]-androstenedione to dihydroandrostenedione); format: cell-based; conditions: for % inhibition de la 5-α reductase type II: n.i. = pas d'inhibition observée
T2 construct: expressed in transfected cells; host or cells: HEK II cells (HEK line kept under Geneticin-418 selection)
T2 sequence (P31213 1-254): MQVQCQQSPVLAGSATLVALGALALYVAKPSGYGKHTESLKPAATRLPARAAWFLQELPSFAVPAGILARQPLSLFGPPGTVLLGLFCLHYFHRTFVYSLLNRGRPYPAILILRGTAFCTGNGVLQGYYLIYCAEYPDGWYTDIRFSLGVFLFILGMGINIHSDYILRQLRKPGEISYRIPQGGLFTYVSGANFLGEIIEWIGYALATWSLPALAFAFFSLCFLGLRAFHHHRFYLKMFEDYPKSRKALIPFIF
Experimental: Les cellules de type HEK I et HEK II ont été utilisées dans du DMEM (pH 7.4) avec 10 % FCS, Penicillin/Streptomycin (100 U/mL and 100 µg/mL) et 0.5 mg/mL de Geneticin-418-sulfate. Les tests d'inhibition ont été réalisés à des concentrations cellulaires de […] cellules par 1.9 cm^2 et incubées pendant 20 h, 5 % CO2 à 37 °C.
Les composés sont dissous dans le DMSO et dilués avec le DMEM pour atteindre les concentrations finales de 100 µM, 10 µM et 1 µM.
Les mesures ont été réalisées grâce à un Phospholmager et les spots correspondant au [4-14C]-androstenedione (A) et au [4-14C]-dihydroandrostenedione (DHA) furent enregistrés avec le logiciel correspondant.
Les calculs ont été réalisés selon la formule suivante: % conversion = (PSL(DHA))/(PSL(DHA+A)) × 100 [formula]
Le pourcentage d'inhibition a été calculé sur une moyenne de deux mesures.
La référence est le finastéride, un médicament inhibiteur des 5α-reductase qui est utilisé comme contrôle positif à deux concentrations de 800 nM et 100 nM, correspondant à l'IC50 du finasteride pour la 5α-reductase de type I et la 5α-reductase de type II, respectivement.

[3] = target: T1, 5-α reductase type I; conditions: reference value used to choose the positive control concentration; read-out: IC50 du finasteride; cited from earlier work
[4] = target: T2, 5-α reductase type II; conditions: reference value used to choose the positive control concentration; read-out: IC50 du finasteride; cited from earlier work
[5] = tested on: taux plasmatique de testostérone; test: Plasma testosterone level in mice after chronic i.p. administration (ELISA); format: in vivo, souris SWISS; conditions: young male mice, figure 1, result in words
Experimental: […] […] • Letrozole • Dose étudiée : 2 mg/kg. • Mise en solution extemporanée dans le méthylcellulose • Honokiol • Doses étudiée : • Honokiol : 0.01, 0.05, 0.5, 2, 5, 10 mg/kg. • Mise en solution extemporanée dans le méthylcellulose • Voie d'administration : […].). • Volume d'injection : 10 ml/kg. Les dosages ont é[…] selon le protocole du kit ELISA commercialisé par la société AbCys S.A., France.

Row | inhibition at 1 µM ([1]; 1 µM, mean of two measurements, read-out: % inhibition de la 5-α reductase type I) | inhibition at 10 µM ([1]; 10 µM, mean of two measurements, read-out: % inhibition de la 5-α reductase type I) | inhibition at 100 µM ([1]; 100 µM, mean of two measurements, read-out: % inhibition de la 5-α reductase type I) | IC50 ([1]; estimate from the dose-dependent inhibition) | % inhibition de la 5-α reductase type II ([2]; 1 µM) | % inhibition de la 5-α reductase type II ([2]; 10 µM) | % inhibition de la 5-α reductase type II ([2]; 100 µM) | affinité pour la 5-α réductase de type II ([2]; result in words) | SMILES | inhibition at 0.1 µM ([1]; 100 nM, mean of two measurements, read-out: % inhibition de la 5-α reductase type I) | inhibition at 0.8 µM ([1]; 800 nM, mean of two measurements, read-out: % inhibition de la 5-α reductase type I) | inhibition at 0.1 µM ([2]; 100 nM, mean of two measurements, read-out: % inhibition de la 5-α reductase type II) | inhibition at 0.8 µM ([2]; 800 nM, mean of two measurements, read-out: % inhibition de la 5-α reductase type II) | IC50 [3] | IC50 [4] | sélectivité 5-α réductase de type I / type II ([1]; conclusion in words) | taux de testostérone plasmatique [5]
1 | – | – | – | – | – | – | – | – | CC(C)(C)NC(=O)[C@H]1CC[C@H]2[C@@H]3CC[C@H]4NC(=O)C=C[C@]4(C)[C@H]3CC[C@]12C [Finasteride, finastéride, reference compound] | 11% | 48% | 55% | 89% | 800 nM | 100 nM | – | –
2 | 1% | 11% | 64% | ~80000 nM | n.i. | n.i. | n.i. | aucune affinité n'est observée | C=CCc1ccc(O)c(-c2ccc(O)c(CC=C)c2)c1 [Honokiol, honokiol] | – | – | – | – | – | – | inhibiteur sélectif de la 5-α réductase de type I | modulation du taux de testostérone en fonction des doses administrées
